Our source for the IC50 values is BindingDB's records for patent US11787810 (Merck Sharp & Dohme, 2023).

pIC50: −log10 of the molar value.

In this test the target is T1, Diacylglycerol O-acyltransferase 2 (Homo sapiens, UniProt Q96PD7).
T1 sequence (Q96PD7 whole entry): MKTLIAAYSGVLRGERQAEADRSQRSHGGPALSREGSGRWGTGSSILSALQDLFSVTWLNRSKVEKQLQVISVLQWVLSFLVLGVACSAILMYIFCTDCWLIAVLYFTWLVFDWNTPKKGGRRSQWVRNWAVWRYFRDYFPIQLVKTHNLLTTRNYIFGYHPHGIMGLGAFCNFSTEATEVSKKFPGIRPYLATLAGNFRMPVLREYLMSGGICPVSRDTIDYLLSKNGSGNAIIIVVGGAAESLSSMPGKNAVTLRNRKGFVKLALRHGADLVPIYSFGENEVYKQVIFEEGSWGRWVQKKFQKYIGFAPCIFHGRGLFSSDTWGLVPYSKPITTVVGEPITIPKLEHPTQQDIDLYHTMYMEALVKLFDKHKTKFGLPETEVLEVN
Nature of the test: DGAT2 Enzymatic Activity Assay. As for the experimental part: DGAT2 activity was determined by measuring the amount of enzymatic product 13C18-triolein (13C-1,2,3-Tri(cis-9-octadecenoyl)glycerol) using the membrane prep mentioned above. The assay was carried out in ABgene 384-well assay plates in a final volume of 25 μL at rt. The assay mixture contained the following: assay buffer (100 mM Tris Cl, pH 7.0, 20 mM MgCl2, 5% ethanol), 25 μM of diolein, 5 μM of 13C oleoyl-CoA and 8 ng/μL of DGAT2 membrane.
Molecule `CC(=O)N1CC(n2nc(-c3cccc(OC(F)F)c3)c3ncc(C(=O)NC4(C)CS(=O)(=O)C4)cc32)C1` [US11787810, Example 135] showed a pIC50 of 5.10. Consider `CC(C)n1nc(-c2cccc(OC(F)F)c2)c2ncc(C(=O)NC3(C)CCS(=O)(=O)CC3)cc21` [US11787810, Example 32], for which the pIC50 is 8.37. The molecule `CC(C)n1nc(-c2cccc(OCC#N)c2)c2ncc(C(=O)NC3(C)CS(=O)(=O)C3)cc21` [US11787810, Example 103] showed a pIC50 of 6.85.
